In patent US20250352506A1, “MRGPRB2/X2, AGONIST AND ANTAGONIST AND METHODS THEREOF” (THE UNIVERSITY OF HONG KONG, priority 2024, published 2025):
“Also recorded” adds a separate entry of the source.

How the values were obtained:
[1] = test system: Mrgpra1 and Mrgprb2 expression in colon; assay: qRT-PCR of mouse orthologs of Mrgprx2 in colon; assay type: in vivo; conditions: WT mice, 2.5% DSS-induced colitis
Description: To assess the gene expression profile in colon, distal colons were used to isolate total RNA using Trizol. Total RNA was precipitated for 30 min in […] with isopropanol and glycogen. The precipitated RNA was then washed with 75% ethanol and resuspended in RNase-free water for first strand cDNA synthesis following the protocol from HiScript® II Q RT SuperMix (Vazyme biotech co., ltd, China). cDNA harvested were quantified by quantitative PCR (7300 Real-Time PCR System, Applied Biosystems, Forster City, CA). The expression of genes was examined using ChamQ™ SYBR Color qPCR Master Mix as specified by the manufacturer protocol. All primer sequences are shown in Supplementary Table S1. […] method was employed for data analysis with the internal control, glyceraldehyde-3-phosphate dehydrogenase (gapdh).

[2] = test system: 2.5% DSS-induced colitis in C57BL/6N mice; assay: Treatment study in 2.5% DSS-induced colitis, clinical parameters (DAI, colon, H&E); assay type: in vivo, mouse; conditions: WT mice, 2.5% DSS Day 0 to 5, ligands every alternative day to Day 12; P17 and analogues 150 μg/kg, CST-14 15 μg/kg, GE1111 300 μg/kg
Excerpt: (§1) C57BL/6N and Mrgprb2−/− adult mice (6-8 weeks old) were obtained from CMMR and housed in cages for acclimatation for a week. C57BL/6N and Mrgprb2−/− mice were divided into four groups (N=5-6) (2% DSS in drinking water and water control). Controls were fed with regular water and the treatment groups were exposed to 2% DSS for 5 days (Day 0 to Day 5) and regular water till Day 12. DSS-Colitis Grade (36,000-50,000 MW) (MP Biomedicals, Santa Ana, CA) was used in this study. During experiments, these mice were given anaesthesia to harvest blood and organs for other biochemical and histology analysis. For the survival study with Mrgprb2/x2 agonists, C57BL/6N mice were grouped into […] (N=10) and fed with 4% DSS for 5 days (Day 0 to 5) and replaced with regular drinking water for the rest of the experiment. Meanwhile, Mrgprb2/x2 ligands were given to the animals every alternative day via i.p. injection 100 μL with 10 μg/kg mice. […]
All animals were examined daily and the disease activity index (DAI) score was assessed as previously described by assessing stool consistency, presence of blood in stool and body weight change as summarised in Table 1. Percentage of body weight was calculated relative to the initial body weight at Day 0 [(Weight on a Day−Initial weight at Day 0/Initial weight at Day 0)×100].

[3] = test system: cytokine and chemokine releases in the blood; assay: Cytokine array analysis of blood plasma; assay type: in vivo, mouse; conditions: mice exposed to 2.5% DSS, 40-target array
Description: The cytokine membranes were blocked with blocking buffer in room temperature for 1 hr. The blocking buffer was removed from the membranes and […] of plasma obtained from the treatment groups (WT+Water, WT+2% DSS, Mrgprb2−/−+Water and Mrgprb2−/−+2% DSS; Water+Saline, 2.5% DSS+Saline, 2.5% DSS+P17*A7 and 2.5% DSS+GE1111) diluted in blocking buffer (total volume 1 mL) were subjected to membrane containing array of antibodies anti-cytokines. The membranes were first incubated at 4 °C for 24 hr in the blocking buffer, following five washes with washing buffers (I and II) and then incubated with 1× biotin-conjugated anti-cytokines overnight at 4 °C. Membranes were washed again with washing buffers (I and II) 5 five times and incubated with 1×HRP-conjugated streptavidin for 2 hr at room temperature. Membranes were washed again, and 1 mL of detection buffer C and D were mixed and added to each membrane in dark for 2 min before imaging. Finally, array images were measured with ChemiDoc MP (Bio-Rad Laboratories, Hercules, CA). The detailed protocol can be referred to the instructions of a Cytokine Antibody Array Kit (ab133999—40 targets, Abcam).

Mrgprx2 = biological target: T1, Mrgprx2 (Homo sapiens, UniProt Q96LB1); assay: PRESTO-Tango GPCR β-arrestin recruitment assay in Mrgprx2-transfected HTLA cells; assay type: cell-based
T1 construct: Tango fusion cassette; expressed in transfected cells; host or cells: HTLA cells
T1 sequence (Q96LB1 1-330): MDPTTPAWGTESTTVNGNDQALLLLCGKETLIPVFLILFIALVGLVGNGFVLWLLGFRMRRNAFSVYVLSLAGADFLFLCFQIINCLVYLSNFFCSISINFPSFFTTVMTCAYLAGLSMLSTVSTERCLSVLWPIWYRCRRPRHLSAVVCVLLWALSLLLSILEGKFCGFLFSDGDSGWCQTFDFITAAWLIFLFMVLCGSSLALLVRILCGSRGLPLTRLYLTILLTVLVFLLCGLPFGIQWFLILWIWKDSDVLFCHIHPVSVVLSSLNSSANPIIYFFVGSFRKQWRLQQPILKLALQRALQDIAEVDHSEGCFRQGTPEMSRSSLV
Description: HTLA cells were maintained in DMEM supplemented with 10% FBS, 2 μg/mL puromycin and 100 μg/mL hygromycin B in a humidified atmosphere at 37° C. in 5% CO2. One million cells were seeded in 100 mm cell culture dish (Day 1). Cells were transfected with 4 μg Tango-MRGPRX2 construct using Lipofectamine 2000 reagent (Day 2). On day 3, cells were harvested and 20,000 cells per well were plated in 80 μL medium into poly-L-lysine coated and rinsed 96-well white cell culture plates (PerkinElmer). On day 4, GE1111 (final concentration […]) is added 1 hr prior to the agonists or antagonist in dose response manner (Compound 48/80, P17, P17*A4, P17*A7 and GE1111). On day 5, medium and drugs were removed from the wells slowly (aspiration) and […] luciferase substrate solution (500 mM DTT, 10 mM CoA, 100 mM ATP, 80 mg/mL luciferin and triton lysis buffer) were added to each well. After incubation for 10 min at room temperature, luminescence was counted in PerkinElmer Victor X4. RLU (relative luminescence units) results were exported into Excel sheets and GraphPad Prism 10 was used for analysis of data. To measure constitutive basal activity, no ligand was added on day 4.

[4] = test system: pERK 1/2 MAPK pathway and STIM1 in LAD2 mast cells; assay: Western blot of LAD2 mast cells treated with Mrgprx2 ligands (pERK1/2, STIM1); assay type: cell-based; conditions: GE1111 25 μM added 30 min prior to agonists
Description: LAD2 cells were treated with agonists (1 μM Compound 48/80, P17, P17*A4, P17*A7 and 25 μM GE1111) for 15 min. For antagonist study, GE1111 (25 μM) were added 30 min prior to adding the agonists ([…] Compound 48/80, P17, P17*A4 and P17*A7). Cells were harvested and RIPA buffer containing cocktail mix of phosphatase and protease inhibitors was used to extract protein. Upon Bradford assay, harvested proteins were denatured with Lamelli buffer at 95° C. for 5 min. Protein samples were loaded in SDS-PAGE and transferred to nitrocellulose membrane. Membranes were blocked with 5% BSA for 1 hr and incubated at 4° C. overnight with primary antibodies (1:1000) in BSA (p44/42 MAPK (Erk1/2) (137F5) Rabbit mAb #4695, cell signalling, USA; Phospho-p44/42 MAPK (Erk1/2) (Thr202/Tyr204) (D13.14.4E) XP® Rabbit mAb #4370, Cell Signalling, USA; GAPDH (14C10) Rabbit mAb #2118, Cell signalling, USA; STIM1 Antibody #4916, Cell Signalling, USA) followed by (1:2000) HRP linked anti-rabbit secondary antibody (Anti-rabbit IgG, HRP-linked Antibody #7074) in 1 hr at room temperature. ECL was added and blots were visualized with Bio Rad CHEMIDOC™ MP imaging system.

[5] = test system: M-CSF, BLC, G-CSF and sTNF RI in blood plasma; assay: ELISA of cytokines in blood plasma; assay type: in vivo, mouse; conditions: mice exposed to 2.5% DSS
Description: Concentrations of cytokines in blood plasma of the treatment groups (WT+Water, WT+2% DSS, Mrgprb2−/−+Water, Mrgprb2−/−+2% DSS, Water+Saline, 2.5% DSS+Saline, 2.5% DSS+P17, 2.5% DSS+P17*A4, 2.5% DSS+P17*A7, 2.5% DSS+CST-14 and 2.5% DSS+GE1111) were determined using ELISA kits (M-CSF-ab199084, Abcam; LIX—ab264611, Abcam; sTNF RI—ab202408, Abcam; G-CSF—ab197743, Abcam; BLC-EMCXCL13, Thermofisher) according to the manufacturer's protocol. Optical densities of the samples and standards were measured using PerkinElmer Victor X4. Cytokine concentrations were determined by comparing the optical density from the standard curve of each cytokine standards.

[6] = test system: 4% DSS-induced colitis in C57BL/6N mice; assay: Survival study in 4% DSS-induced colitis; assay type: in vivo, mouse; conditions: WT mice, i.p. every alternative day
Excerpt: as §1, with “mice. For the treatment study with Mrgprb2/x2 ligands, C57BL/6N mice were divided into 7 groups (N=8 per group). Six groups were receiving 2.5% DSS dissolved in drinking water for 5 days (Day 0 to Day 5) and regular water till Day 12 and the control group was receiving water from Day 0 to Day 12. These 6 groups exposed to 2.5% DSS were treated with Mrgprb2/x2 ligands or saline for every alternative day till Day 12.” for “mice.”

[7] = test system: DSS-induced colitis in mice models; conditions: recent studies [41]-[44]; cited from earlier work

| Compound | expression of Mrgpra1 and Mrgprb2 in colon [1] | severity of DSS-induced colitis [2] | cytokine and chemokine levels in the blood plasma (array) [3] | effect on agonist-induced β-arrestin recruitment (Mrgprx2; GE1111 (final concentration 10 PM) added 1 hr prior to the agonists) | GE1111 dose response on Mrgprx2 (no agonist) (Mrgprx2; Mrgprx2-transfected HTLA cells, GE1111 alone) | effect on agonist-induced pERK1/2 / STIM1 pathway [4] | M-CSF, BLC and G-CSF levels in blood plasma [5] | survival of mice [6] | DSS-induced colitis symptoms [7] |
| --- | --- | --- | --- | --- | --- | --- | --- | --- | --- |
| COC(=O)c1cc2cc(NC(N)=O)ccc2cc1-c1cc2c3c(c(O)ccc3c1)C(C)C(C=O)=C2 (stereo not shown) [GE1111] | restored their expression to the levels of healthy mice | reduced the severity of DSS-induced colitis | significant modifications in most of the cytokine and chemokine levels | antagonized the agonist activity | behaved as an inverse agonist | antagonized this pathway | significant reduction in these cytokine levels | increased the survival rate; also recorded: mimicked the effect of the agonist on mice survival | – |
| O=c1c(O)c(-c2ccc(O)c(O)c2)oc2cc(O)cc(O)c12 [quercetin] | – | – | – | – | – | – | – | – | ameliorate DSS-induced colitis symptoms |
| cortistatin 14 [CST-14, reference compound] | – | reduced the severity of DSS-induced colitis | – | – | – | – | – | increased the survival rate | ameliorate DSS-induced colitis symptoms |
| protegrin | – | – | – | – | – | – | – | – | ameliorate DSS-induced colitis symptoms |
